Measurements from patent US20230278972A1, “SUBSTITUTED HALOALKYL SULFONANILIDE HERBICIDES” (FMC Corporation, priority 2020, published 2023).

How the values were obtained:
Assay type in all cases: in vivo
[1] = test system: blackgrass (Alopecurus myosuroides); experiment: Test A1 preemergence, blackgrass
Description: (§1) Seeds of plant species selected from, blackgrass (Alopecurus myosuroides), corn (Zea mays), Foxtail, Giant (giant foxtail, Setaria faberi), goosegrass (Eleusine indica), kochia (Bassia scoparia), Oat, Wild (wild oat, Avena fatua), Pigweed, Palmer (palmer amaranth, palmer pigweed, Amaranthus palmeri), ragweed (common ragweed, Ambrosia artemisiifolia), Ryegrass, Italian (Italian ryegrass, Lolium multiflorum), soybean (Glycine max), and wheat (Triticum aestivum) were planted into a blend of loam soil and sand and treated preemergence with a directed soil spray using test chemicals formulated in a non-phytotoxic solvent mixture which included a surfactant. At the same time, plants selected from these crop and weed species and also galium (catchweed bedstraw, Galium aparine) and horseweed (Erigeron canadensis) were planted in pots containing the same blend of loam soil and sand and treated with postemergence applications of test chemicals formulated in the same manner. Plants ranged in height from 2 to 10 cm and were in the one- to two-leaf stage for the postemergence treatment. […] A dash (-) response means no test result.

corn (Zea mays) [2] = experiment: Test A1 preemergence, corn
Description: as §1

[3] = test system: Foxtail, Giant (giant foxtail, Setaria faberi); experiment: Test A1 preemergence, Foxtail, Giant
Description: as §1

[4] = test system: goosegrass (Eleusine indica); experiment: Test A1 preemergence, goosegrass
Description: as §1

kochia (Bassia scoparia) [5] = experiment: Test A1 preemergence, kochia
Description: as §1

[6] = test system: Oat, Wild (wild oat, Avena fatua); experiment: Test A1 preemergence, Oat, Wild
Description: as §1

[7] = test system: Pigweed, Palmer (palmer amaranth, palmer pigweed, Amaranthus palmeri); experiment: Test A1 preemergence, Pigweed, Palmer
Description: as §1

[8] = test system: ragweed (common ragweed, Ambrosia artemisiifolia); experiment: Test A1 preemergence, ragweed
Description: as §1

[9] = test system: Ryegrass, Italian (Italian ryegrass, Lolium multiflorum); experiment: Test A1 preemergence, Ryegrass, Italian
Description: as §1

soybean (Glycine max) [10] = experiment: Test A1 preemergence, soybean
Description: as §1

[11] = test system: wheat (Triticum aestivum); experiment: Test A1 preemergence, wheat
Description: as §1

[12] = test system: blackgrass (Alopecurus myosuroides); experiment: Test A1 postemergence, blackgrass; settings: Postemergence, 0 to 100 scale (0 no effect, 100 complete control)
Description: as §1

corn (Zea mays) [13] = experiment: Test A1 postemergence, corn; settings: Postemergence
Description: as §1

[14] = test system: Foxtail, Giant (giant foxtail, Setaria faberi); experiment: Test A1 postemergence, Foxtail, Giant; settings: for Plant response rating, Foxtail, Giant: Postemergence
Description: as §1

[15] = test system: goosegrass (Eleusine indica); experiment: Test A1 postemergence, goosegrass; settings: for Plant response rating, Goosegrass: Postemergence
Description: as §1

kochia (Bassia scoparia) [16] = experiment: Test A1 postemergence, kochia; settings: for Plant response rating, Kochia: Postemergence
Description: as §1

[17] = test system: Oat, Wild (wild oat, Avena fatua); experiment: Test A1 postemergence, Oat, Wild; settings: for Plant response rating, Oat, Wild: Postemergence
Description: as §1

[18] = test system: Pigweed, Palmer (palmer amaranth, palmer pigweed, Amaranthus palmeri); experiment: Test A1 postemergence, Pigweed, Palmer; settings: for Plant response rating, Pigweed, Palmer: Postemergence
Description: as §1

[19] = test system: ragweed (common ragweed, Ambrosia artemisiifolia); experiment: Test A1 postemergence, ragweed; settings: for Plant response rating, Ragweed: Postemergence
Description: as §1

[20] = test system: Ryegrass, Italian (Italian ryegrass, Lolium multiflorum); experiment: Test A1 postemergence, Ryegrass, Italian; settings: for Plant response rating, Ryegrass, Italian: Postemergence
Description: as §1

soybean (Glycine max) [21] = experiment: Test A1 postemergence, soybean; settings: for Plant response rating, Soybean: Postemergence
Description: as §1

[22] = test system: wheat (Triticum aestivum); experiment: Test A1 postemergence, wheat; settings: for Plant response rating, Wheat: Postemergence
Description: as §1

[23] = test system: galium (catchweed bedstraw, Galium aparine); experiment: Test A1 postemergence, galium; settings: for Plant response rating, Galium: Postemergence
Description: as §1

[24] = test system: horseweed (Erigeron canadensis); experiment: Test A1 postemergence, horseweed; settings: Postemergence
Description: as §1

[25] = test system: barnyardgrass (Echinochloa crus-galli); experiment: Test B1 flooded paddy test, barnyardgrass; settings: 250 g ai/ha, Flood, applied to paddy water, 2-leaf stage, visually evaluated after 10 to 14 days
Description: (§2) A dash (-) response means no test result.

[26] = test system: ducksalad (Heteranthera limosa); experiment: Test B1 flooded paddy test, ducksalad; settings: 250 g ai/ha, Flood, applied to paddy water, 2-leaf stage, visually evaluated after 10 to 14 days
Description: as §2

rice (Oryza sativa) = experiment: Test B1 flooded paddy test, rice; settings: 250 g ai/ha, Flood, applied to paddy water, 2-leaf stage, visually evaluated after 10 to 14 days
Description: as §2

[27] = 31 g ai/ha, 0 to 100 scale (0 no effect, 100 complete control)
[28] = 125 g ai/ha, 0 to 100 scale, 0 no effect, 100 complete control
[29] = 31 g ai/ha, 0 to 100 scale (0 no effect, 100 complete control), 10 days
[30] = 31 g ai/ha, postemergence, 0 to 100 scale (0 no effect, 100 complete control)

Cc1c(NS(=O)(=O)C(F)(F)F)cc(C(=O)N(C)C)c(C)c1C [Compound 288]
20: Plant response rating, Foxtail, Giant [3, 27] | Plant response rating, Horseweed [24, 29]
40: Plant response rating, Kochia (kochia (Bassia scoparia) [5]; [28]) | Plant response rating, Ragweed [8, 28] | Plant response rating, Soybean (soybean (Glycine max) [10]; [28]) | Plant response rating, Soybean (soybean (Glycine max) [21]; 125 g ai/ha, 0 to 100 scale)
70: Plant response rating, Pigweed, Palmer [7, 28] | Plant response rating, Foxtail, Giant ([14]; 125 g ai/ha, 0 to 100 scale) | Plant response rating, Goosegrass ([15]; 125 g ai/ha, 0 to 100 scale)
10: Plant response rating, Corn (corn (Zea mays) [13]; 125 g ai/ha, 0 to 100 scale) | Plant response rating, Kochia (kochia (Bassia scoparia) [16]; 125 g ai/ha, 0 to 100 scale) | Plant response rating, Wheat ([22]; 125 g ai/ha, 0 to 100 scale)
50: Plant response rating, Pigweed, Palmer [7, 27]
0: Plant response rating, Blackgrass [1, 27] | Plant response rating, Blackgrass [1, 28] | Plant response rating, Corn (corn (Zea mays) [2]; [27]) | Plant response rating, Corn (corn (Zea mays) [2]; [28]) | Plant response rating, Kochia (kochia (Bassia scoparia) [5]; [27]) | Plant response rating, Oat, Wild [6, 27] | Plant response rating, Oat, Wild [6, 28] | Plant response rating, Ragweed [8, 27] | Plant response rating, Ryegrass, Italian [9, 27] | Plant response rating, Ryegrass, Italian [9, 28] | Plant response rating, Wheat [11, 27] | Plant response rating, Wheat [11, 28] | Plant response rating, Blackgrass ([12]; 31 g ai/ha, 10 days) | Plant response rating, Blackgrass ([12]; 125 g ai/ha) | Plant response rating, Corn (corn (Zea mays) [13]; [29]) | Plant response rating, Foxtail, Giant [14, 29] | Plant response rating, Goosegrass [15, 29] | Plant response rating, Kochia (kochia (Bassia scoparia) [16]; [29]) | Plant response rating, Oat, Wild [17, 29] | Plant response rating, Oat, Wild ([17]; 125 g ai/ha, 0 to 100 scale) | Plant response rating, Pigweed, Palmer [18, 29] | Plant response rating, Ryegrass, Italian [20, 29] | Plant response rating, Ryegrass, Italian ([20]; 125 g ai/ha, 0 to 100 scale) | Plant response rating, Wheat [22, 29] | Plant response rating, Galium [23, 29] | Plant response rating, Galium ([23]; 125 g ai/ha, 0 to 100 scale) | Plant response rating, Barnyardgrass (0 to 100 scale, 0 is no effect, 100 is complete control) [25] | Plant response rating, Rice (0 to 100 scale, 0 is no effect, 100 is complete control) (rice (Oryza sativa))
30: Plant response rating, Goosegrass [4, 27] | Plant response rating, Soybean (soybean (Glycine max) [10]; [27]) | Plant response rating, Pigweed, Palmer ([18]; 125 g ai/ha, 0 to 100 scale) | Plant response rating, Ragweed [19, 29] | Plant response rating, Soybean (soybean (Glycine max) [21]; [29]) | Plant response rating, Horseweed ([24]; 125 g ai/ha, 0 to 100 scale)
80: Plant response rating, Ragweed ([19]; 125 g ai/ha, 0 to 100 scale)
90: Plant response rating, Foxtail, Giant [3, 28] | Plant response rating, Goosegrass [4, 28]
60: Plant response rating, Ducksalad (0 to 100 scale, 0 is no effect, 100 is complete control) [26]

C#CCN(C)C(=O)c1cc(NS(=O)(=O)C(F)(F)F)c(C)c(C)c1C [Compound 368]
60: Kochia plant response rating (kochia (Bassia scoparia) [16]; [30]) | Plant response rating, Wheat ([22]; 125 g ai/ha, 0 to 100 scale) | Plant response rating, Ducksalad (0 to 100 scale, 0 is no effect, 100 is complete control) [26]
10: Plant response rating, Blackgrass [1, 27] | Plant response rating, Oat, Wild [6, 27] | Plant response rating, Blackgrass ([12]; 125 g ai/ha) | Plant response rating, Oat, Wild ([17]; 125 g ai/ha, 0 to 100 scale)
100: Plant response rating, Foxtail, Giant [3, 28] | Plant response rating, Pigweed, Palmer [7, 27] | Plant response rating, Pigweed, Palmer [7, 28] | Plant response rating, Ryegrass, Italian [9, 28] | Plant response rating, Soybean (soybean (Glycine max) [10]; [28]) | Plant response rating, Wheat [11, 28] | Plant response rating, Galium ([23]; 125 g ai/ha, 0 to 100 scale)
90: Plant response rating, Corn (corn (Zea mays) [2]; [28]) | Plant response rating, Foxtail, Giant [3, 27] | Plant response rating, Goosegrass [4, 28] | Plant response rating, Kochia (kochia (Bassia scoparia) [5]; [28]) | Plant response rating, Soybean (soybean (Glycine max) [10]; [27]) | Plant response rating, Corn (corn (Zea mays) [13]; 125 g ai/ha, 0 to 100 scale) | Plant response rating, Foxtail, Giant ([14]; 125 g ai/ha, 0 to 100 scale) | Plant response rating, Goosegrass ([15]; 125 g ai/ha, 0 to 100 scale) | Plant response rating, Ryegrass, Italian ([20]; 125 g ai/ha, 0 to 100 scale) | Plant response rating, Soybean (soybean (Glycine max) [21]; 125 g ai/ha, 0 to 100 scale)
70: Plant response rating, Goosegrass [4, 27] | Soybean plant response rating (soybean (Glycine max) [21]; [30]) | Galium plant response rating [23, 30] | Plant response rating, Barnyardgrass (0 to 100 scale, 0 is no effect, 100 is complete control) [25]
20: Plant response rating, Kochia (kochia (Bassia scoparia) [5]; [27]) | Plant response rating, Oat, Wild [6, 28] | Plant response rating, Wheat [11, 27] | Pigweed, Palmer plant response rating [18, 30] | Ryegrass, Italian plant response rating [20, 30] | Wheat plant response rating [22, 30]
40: Plant response rating, Blackgrass [1, 28] | Plant response rating, Corn (corn (Zea mays) [13]; [29]) | Plant response rating, Pigweed, Palmer ([18]; 125 g ai/ha, 0 to 100 scale)
50: Plant response rating, Ragweed [8, 27] | Plant response rating, Ryegrass, Italian [9, 27] | Ragweed plant response rating [19, 30]
80: Plant response rating, Ragweed [8, 28] | Foxtail, Giant plant response rating [14, 30] | Plant response rating, Kochia (kochia (Bassia scoparia) [16]; 125 g ai/ha, 0 to 100 scale) | Plant response rating, Ragweed ([19]; 125 g ai/ha, 0 to 100 scale)
30: Goosegrass plant response rating [15, 30]
0: Plant response rating, Corn (corn (Zea mays) [2]; [27]) | Plant response rating, Blackgrass ([12]; 31 g ai/ha, 10 days) | Oat, Wild plant response rating [17, 30] | Plant response rating, Rice (0 to 100 scale, 0 is no effect, 100 is complete control) (rice (Oryza sativa))
